Residues, ends and D or L forms follow the SMILES beside them. No end group written: not given here.
Assays:
PC12 cells [1] = assay: Sulforhodamine B (SRB) cell viability assay; type: cell-based
Method: Wild-type PC12 cell were provided by Sigma-Aldrich (St. Louis, MO). The culture was routinely plated in 100 mm dishes (Corning) coated with collagen (2 μg/cm^2) and maintained in growth medium with Minimum Essential Medium Eagle (MEM) supplemented with heat-inactivated 10% horse serum (HS) and 5% foetal bovine serum (FBS), 10 mM HEPES, 2 mM L-Glutamine and 1:400 Penicillin/streptomycin solution. Cells were maintained at 37° C. in a humidified atmosphere 5% CO2 and the medium was replaced every 2 days. For splitting, cells were dislodged from the dish using a pipette with medium, with a portion of these replated onto new cultured dishes. Cells were used between passages 12 and 25.
The cell viability assay used was the sulforhodamine B (SRB) colorimetric assay for toxicity screening. The day before of the experiment cells were seeded onto collagen-coated 96-well plates in a concentration of 40,000 cells/well. Cell concentration was determined by the Fuchs-Rosenthal chamber. […] After treatment, medium was replaced and cells were fixed by adding 100 μl of 10% Trichloroacetic Acid (TCA) for 1 h at 4° C. Thereafter, cells were washed with H2O and stained with 100 μl of a 0.057% SRB solution in 1% Acetic acid (HAc) for 30 minutes at room temperature. After staining cells were washed with 1% HAc for removing the excess of SRB and then incubated with 200 μl of 10 mM Tris base (pH 10.5) and shake it for 5 minutes to solubilise the protein-bound dye. Measurement of the absorbance took place in a VMax Kinetic Microplate Reader (Molecular Devices) at 490 nm.

[2] = target: T1, acetylcholinesterase (AChE) (Rattus norvegicus, UniProt P37136); assay: Acetylcholinesterase enzymatic activity assay (Ellman reagent); type: biochemical
T1 construct: endogenous in cells; host or cells: PC12 cells (released enzyme in the supernatant)
T1 sequence (P37136 32-614): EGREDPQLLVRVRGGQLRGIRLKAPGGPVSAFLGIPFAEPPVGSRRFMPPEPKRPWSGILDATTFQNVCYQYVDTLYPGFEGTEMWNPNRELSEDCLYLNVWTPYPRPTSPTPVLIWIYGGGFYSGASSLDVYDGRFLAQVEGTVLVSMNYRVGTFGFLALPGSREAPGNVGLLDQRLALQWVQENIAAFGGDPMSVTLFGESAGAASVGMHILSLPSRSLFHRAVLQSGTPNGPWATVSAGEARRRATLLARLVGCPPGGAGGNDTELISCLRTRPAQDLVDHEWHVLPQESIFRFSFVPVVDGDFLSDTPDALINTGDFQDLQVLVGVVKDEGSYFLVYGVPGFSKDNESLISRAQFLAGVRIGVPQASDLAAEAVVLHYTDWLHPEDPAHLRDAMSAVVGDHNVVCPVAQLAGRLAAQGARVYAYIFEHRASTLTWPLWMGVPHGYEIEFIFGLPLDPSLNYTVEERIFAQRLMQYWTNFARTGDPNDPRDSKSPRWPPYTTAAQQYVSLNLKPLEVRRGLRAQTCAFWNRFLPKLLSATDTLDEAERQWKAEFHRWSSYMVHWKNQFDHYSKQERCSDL
Method: AChE activity was measured using the Ellman reagent that measures the presence of thiol groups as a result of AChE activity. Cells were plated the day before the experiment as for the cell viability assay. Cells were treated with different concentrations of Cyclic T14 (0.1-100 μM) and T30, T14 and Aβ 10 μM alone or combined with Cyclic T14 (0.1 and 0.7 μM). […] The Ellman reagent was prepared as a mixture of the 3 solutions in a ratio 33(A):3(B):4(C). Absorbance measurements were taken at regular intervals (3, 10, 30 and 60 mins) across experiments at 405 nm.
The inventor next decided to confirm whether or not Cyclic T14 affects the enzymatic activity of acetylcholinesterase (AChE). AChE enzymatic activity was measured using the acetylcholinesterase activity assay.

PC12 cells [3] = assay: AChE release / AChE activity in perfusate of treated PC12 cells (Ellman assay); type: cell-based
rat brain slices = assay: Calcium fluorometry (Fluo-4) in brain slices; type: cell-based; settings: two hours
Method: Increases in intracellular Ca^2+ were monitored by measuring changes in fluorescence in cells loaded with Fluo-4 (Life Technologies Corporation, UK). […] After the 2 hours, slices were incubated in the dark for 40 minutes at room temperature with 1.2 ml/well of loading medium that contained: Tyrode's salt solution (TSS; 137 mM NaCl, 2.7 mM KCl, 1.0 mM MgCl2, 2.5 mM CaCl2, 0.2 mM NaH2PO4, 12.0 NaHCO3, 5.5 glucose, pH 7.4), Fluo-4 (2 μM), Pluronic F127 (0.02%) and probenecid (2 mM). Probenecid is a blocker of the multidrug resistant protein, an ion transporter, and avoids the excretion of the fluorescent molecule from the cell. After incubation, slices were washed with TSS and 1200 μl/well of de-esterification medium, containing TSS and probenecid, were added. Slices were incubated in the dark for 20 minutes at 22° C. Fluorescence measurements (excitation 485 nm, emission 538 nm) were recorded in a Fluostar Optima (BMG, UK) plate reader.

[4] = system: rat model for hemi-Parkinsonism; assay: Paw placement test (cylinder test) after 6-OHDA lesion; type: in vivo; settings: day 2: two days post 6-OHDA, one day after NBP-14 injection via cannula into MFB; p<0.05 vs 6-OHDA vehicle
Method: Unlike animal models for Alzheimer's disease, the rat model for hemi-Parkinsonism is very well established and readily quantifiable. Accordingly, a unilateral intra striatum injection of the T30 was administered to observe any behavioural effects of the toxin. In a subsequent experiment, the potential protective effects of NBP14 were observed against the well-known neurotoxin 6-hydroxydopamine (6-OHDA), which led to DA neuron loss on the injected side whilst sparing the contralateral DA neurons. NBP-14 was administered via implanted cannula into the medial forebrain bundle (MFB). 6-hydroxydopamine was injected at 10 mg/kg.
Animals are anaesthetized using Ketamine (10%; 0.1 ml/kg body weight) and Xylazine (2%; 0.01 ml/kg). The animals are then stereotactically injected into the MFB with 2 μL 6-OHDA at a concentration of 20 mg/ml in 0.02% ascorbic acid. […]
Paw Placement Test (Cylinder Test): This test assesses a rat's independent forelimb use to support the body against the walls of a cylindrical enclosure. […] To perform this test, rats are placed individually in a glass cylinder (21 cm diameter, 34 cm height) and wall exploration is recorded for 3 minutes. […] Wall exploration is expressed in terms of the ratio between the intact (R) and impaired legs (L) and calculated as the values of intact right+both forelimbs divided into the values of impaired left+both forelimbs (R/L). […]

## CSCC[C@@H]1NC(=O)[C@H](Cc2ccc(O)cc2)NC(=O)[C@H](CO)NC(=O)[C@H](CO)NC(=O)[C@H](Cc2c[nH]c3ccccc23)NC(=O)[C@H](CCCNC(=N)N)NC(=O)[C@H](Cc2c[nH]cn2)NC(=O)[C@H](Cc2ccccc2)NC(=O)[C@H](CCC(=O)O)NC(=O)[C@H](C)NC(=O)[C@H](CCCCN)NC(=O)[C@H](Cc2c[nH]c3ccccc23)NC(=O)[C@H](Cc2c[nH]cn2)NC(=O)[C@H](C(C)C)NC1=O [Cyclic T14] (cyclo(AEFHRWSSYMVHWK))
PC12 cells [1]; H2O2 100 μM + Cyclic T14 100 nM, PC12
  protection against non-specific cytotoxic effect of H2O2 (H2O2 alone vs combined): no significant difference
PC12 cells [1]; PC12, 1 hour
  threshold dose for full protection against β-amyloid: 1 nM
PC12 cells [1]; PC12, FIG. 8
  minimum effective concentration against β-Amyloid (10 μM) on cell viability: 1 nM
PC12 cells [1]; ✓ = Dream Drug feature 'Blocks β-Amyloid at low doses 1 nM)'
  blocks β-Amyloid at low doses (Table 3 feature): ✓
[2]; 2 μM
  effect on enzyme activity of acetylcholinesterase: did not affect
[2]; ✓ = Dream Drug feature 'Does not affect AChE activity'
  effect on AChE activity (Table 3 feature): ✓
PC12 cells [3]; T14 10 μM + Cyclic T14 100 nM, 1 hour
  AChE activity, T14 combined with Cyclic T14: 112.30±1.39
PC12 cells [3]; T30 5 uM + NBP-14 5 nM (1st of 10 values)
  released AChE activity, T30 + NBP-14: 130.73±1.84%
PC12 cells [3]; T30 5 uM + NBP-14 7 nM (2nd of 10 values)
  released AChE activity, T30 + NBP-14: 111.68±2.26%
PC12 cells [3]; T30 5 uM + NBP-14 9 nM (3rd of 10 values)
  released AChE activity, T30 + NBP-14: 92.78±0.99%
PC12 cells [3]; T30 5 uM + NBP-14 10 nM (4th of 10 values)
  released AChE activity, T30 + NBP-14: 82.56±2.38%
PC12 cells [3]; T30 5 uM + NBP-14 20 nM (5th of 10 values)
  released AChE activity, T30 + NBP-14: 68.90±0.92%
PC12 cells [3]; T30 5 uM + NBP-14 50 nM (6th of 10 values)
  released AChE activity, T30 + NBP-14: 65.12±1.32%
PC12 cells [3]; T30 5 uM + NBP-14 70 nM (7th of 10 values)
  released AChE activity, T30 + NBP-14: 61.04±0.97%
PC12 cells [3]; T30 5 uM + NBP-14, 8th of 10 values, concentration unclear
  released AChE activity, T30 + NBP-14: 79.43±1.69%
PC12 cells [3]; T30 5 uM + NBP-14, 9th of 10 values, concentration unclear
  released AChE activity, T30 + NBP-14: 83.91±1.24%
PC12 cells [3]; T30 5 uM + NBP-14, 10th of 10 values, concentration unclear
  released AChE activity, T30 + NBP-14: 89.55±1.25%
PC12 cells [3]; T30 5 uM, FIG. 14
  concentration range protective against AChE compensatory effects: high nanomolar concentrations
Rat brain slices; Cyclic T14 1 μM + β-Amyloid 10 μM
  intracellular calcium level raised by β-Amyloid, combined with Cyclic T14: returned to baseline
Rat brain slices; Cyclic T14 1 μM
  intracellular calcium level, compound alone: does not change the basal level
[4]
  R/L ratio of paw placement: 3.62±0.55

## KAEFHRWSSYMVHWKNQFDHYSKQDRCSDL [T30, reference compound]
PC12 cells [3]; 10 μM, 1 hour, PC12
  AChE activity, peptide alone: 129.10±1.18
PC12 cells [3]; T30 5 uM alone, N=3
  released AChE activity: 169.45%±2.11

Reference: patent US12139729B2, “Neurodegenerative disorders” (priority 2013, dated 2024)
